Laboratory results from patent US5434136A, “Treatment of motility disorders with a GNRH analog” (priority 1992, dated 1995).

What was measured:
[1] = system: functional bowel disease (IIHVN), ovaries removed; test: Effective dose of leuprolide acetate in patients having previous ovariectomy; type: in vivo, human
Description: Two patients discussed in Example 1 were women who had undergone surgery for removal of their ovaries. The first patient, Number 3, had undergone this surgery approximately two years prior to beginning Leuprolide acetate treatment. The second patient, Number 4, underwent ovariectomy 18 months […] beginning treatment with Leuprolide Acetate. In both cases, the effective dose of leuprolide acetate was higher than the effective dose required by patients who had not had ovaries removed.

[2] = system: migrating motor complexes, jejunum; test: Leuprolide acetate in ovariectomized female rats: migrating motor complexes; type: in vivo, ovariectomized female Wistar rats; details: for Migrating Motor Complexes, L-Fasted / Migrating Motor Complexes, L-Fed: ovariectomized
Description: Eleven female Wistar rats weighing between 175 and 250 g were each implanted with four bipolar Ag/AgCL electrodes (the preparation of which is described in: Mathias, Am. J. Physiology, 249:[…]-[…], 1981). The electrodes were sewn 5 cm from the Ligament of Trietz and 5 cm apart, onto the jejunal serosa. The number of migrating myoelectric complexes was recorded using a R-612 Dynograph (Sensor-Medics, Anaheim, Calif.). Rats were fasted for 36 hours prior to recording and feeding (no food, liberal water), and were housed in special cages to remove feces. After 36 hours of fasting, Migrating Motor Complexes (MMC) were recorded at a sensitivity of 0.2 mV/cm, 2.5 mm/sec paper speed, and a Time Constant of 1 for a duration of 2 to 4 hours. Immediately following the fasted recording session, the rats were fed 2 biscuits of Purina rat chow with simultaneous recording during feeding and continued for 4 hours. Female Wistar rats were ovariectomized and permitted to recover ten days. Bipolar Ag/AgCl electrodes were then implanted as described for example 4. Control MMC readings in the fasted and fed states were recorded prior to treatment with leuprolide acetate (Controls) as described in Example 4. Treatment with leuprolide acetate followed using doses in the range of 2 to 250 μg/100 g body weight. Fasted and fed recordings were obtained as described for Example 4.

[3] = system: end-stage scleroderma; test: Treatment of end stage scleroderma with leuprolide acetate; type: in vivo, human; details: Patient 6, 0.5 mg daily s.c.
Description: Patient number 6 was in end-stage scleroderma. They had been bed-ridden for approximately eight months, unable to retain food after eating, and was being maintained on total parental hyperalimentation (TPN) to keep up body weight and fluid and electrolyte balance for five months. This patient was treated with 0.5 mg Leuprolide acetate daily, by subcutaneous injection according to the protocol of example 1.

[4] = system: GI disorders secondary to SLE; test: Treatment of patients with GI disorders secondary to Systemic Lupus Erythematosus: clinical outcome; type: in vivo, human; details: for GI symptoms: within eight weeks
Description: Daily treatment with 2.0 mg luprolide acetate (Lupron, Tapp Abbott Pharmaceutical Company) was given daily by subcutaneous injection. […] Treatment with 1.25 mg. of leuprolide acetate (Lupron) was given daily by subcutaneous injection. […] Daily administration of 1.75 mg of luprolide acetate (Lupron) was administered subcutaneously. […] This patient has been hospitalized several times since beginning luprolide acetate therapy for exacerbations of their SLE, but the GI tract has not been a factor. Their debilitating symptoms have been controlled, and they were able to return to work. Daily administration of 1.5 mg of luprolide acetate (Lupron) was given by subcutaneous injection. Within eight weeks of Lupron therapy, their GI symptoms were controlled. […] Daily administration of 1.75 mg luprolide acetate (Lupron) was given subcutaneously. After six months of Lupron therapy, motility recordings were again performed. Ten migrating motor complexes per 12 hour recording session were seen. These complexes were organized and appeared more typical of a controlled tracing, showing normal cycling activity in the stomach and small intestine. […] Their hydrogen breath test was unchanged.

[5] = SLE patient 1, 2.0 mg daily s.c.
[6] = SLE patient 2, 1.25 mg daily s.c., within approximately eight weeks
[7] = SLE patient 4, 1.5 mg daily s.c.

CCNC(=O)[C@@H]1CCCN1C(=O)[C@H](CCCNC(=N)N)NC(=O)[C@H](CC(C)C)NC(=O)[C@@H](CC(C)C)NC(=O)[C@H](Cc1ccc(O)cc1)NC(=O)[C@H](CO)NC(=O)[C@H](Cc1c[nH]c2ccccc12)NC(=O)[C@H](Cc1c[nH]cn1)NC(=O)[C@@H]1CCC(=O)N1 [Leuprolide acetate, leuprolide acetate]
Daily dose needed to overcome symptoms ([1]; Patient 3, ovaries removed, initially 0.5 mg): 2.0 mg
Effective daily dose that relieved symptoms ([1]; Patient 4, post-ovariectomy): 2.0 mg
Sufficiency of daily dose of 0.5 mg ([1]; Patient 4, post-ovariectomy): not sufficient
Symptoms at daily dose of 0.5 mg ([1]; Patient 4, prior to the removal of their ovaries): symptom free
Effective dose compared with patients who had not had ovaries removed ([1]; Patients 3 and 4): higher
Dose required to overcome the reduction of MMC/hour in fed rats ([2]; ovariectomized female rats): 100 ug/100 g body weight
Migrating Motor Complexes, L-Fasted ([2]; 2 μg/100 g body weight, control 3.86 + 0.14, mean + SEM): 4.40 + 0.16 MMC/hour
Migrating Motor Complexes, L-Fed ([2]; 2 μg/100 g body weight, control 0): 0 MMC/hour
Migrating Motor Complexes, L-Fasted ([2]; 20 μg/100 g body weight, control 5.17 + 0.31, mean + SEM): 5.40 + 0.15 MMC/hour
Migrating Motor Complexes, L-Fed ([2]; 20 μg/100 g body weight, control 0): 0 MMC/hour
Migrating Motor Complexes, L-Fasted ([2]; 40 μg/100 g body weight, control 4.50 + 0.22, mean + SEM): 5.23 + 0.41 MMC/hour
Migrating Motor Complexes, L-Fed ([2]; 40 μg/100 g body weight, control 0.88 + 0.58): 0 MMC/hour
Migrating Motor Complexes, L-Fasted ([2]; 100 μg/100 g body weight, control 4.00 + 0.17, mean + SEM): 5.00 + 0.41 MMC/hour
Migrating Motor Complexes, L-Fed ([2]; 100 μg/100 g body weight, control 0, mean + SEM): 4.50 + 0.34 MMC/hour
Migrating Motor Complexes, L-Fasted ([2]; 250 μg/100 g body weight, control 4.50 + 0.22, mean + SEM): 4.50 + 0.29 MMC/hour
Migrating Motor Complexes, L-Fed ([2]; 250 μg/100 g body weight, control 0.88 + 0.58, mean + SEM): 5.00 + 0.58 MMC/hour
Eating and body weight at discharge [3]: eating without difficulty, and had gained weight
Need for TPN feeding after five weeks of therapy [3]: did not require the TPN feeding
Mobility after five weeks of therapy ([3]; bed-ridden before): able to move about actively
Compliment levels (C3 and C4) [4, 5]: returned to normal
Hemoglobin, hematocrit, white blood cells and platelets [4, 5]: returned to normal
Need of Imuran or prednisone to control SLE [4, 5]: no longer required Imuran or prednisone
GI symptoms [4, 5]: free of the above described GI symptoms
Body weight gained [4, 6]: 15-20 pounds
Gastrointestinal symptoms [4, 6]: free of gastrointestinal symptoms
Oral food intake ([4]; SLE patient 3, 1.75 mg daily s.c., required TPN before): able to eat soft, solid food by mouth
GI symptoms ([4]; SLE patient 3, 1.75 mg daily s.c.): controlled
Nutrition [4, 7]: able to eat and maintain their nutrition on liquid supplements taken by mouth
Body weight within six months ([4]; SLE patient 4, 1.5 mg daily s.c., oral intake): did not gain weight, but they did not lose weight
GI symptoms [4, 7]: controlled
Effectiveness of therapy in an older, post menopausal patient ([4]; SLE patient 5): effective
Eating and body weight ([4]; SLE patient 5, after six months of therapy): able to eat foods by mouth and gained weight
